Experiments:
[1] = tested on: H9 hESCs differentiating to hepatocyte like cells; assay: Quantitative PCR gene expression during differentiation; assay type: cell-based, human; conditions: days 0, 3, 9, 18; normalized to GAPDH
Description: Total RNA was isolated from cells using Trizol reagent. RNA quantification and quality was assessed using a Nanodrop system. The Life Technologies Superscript III reverse transcription kit was employed to prepare the cDNA. Quantitative PCR was performed with Taqman Fast Advance Mastermix and the appropriate primer pair and analysed using a Roche LightCycler 480 Real-Time PCR System. Gene expression was normalized to glyceraldehyde 3-phosphate dehydrogenase (GAPDH) and expressed as relative expression over the control sample (hESC on Day 0 of differentiation). Quantitative PCRs were performed in triplicate. Data analysis was performed using Roche LightCycler 480 Software (version 1.5). […] Cell extracts were collected during differentiation and mRNA assessed on days 0, 3, 9, and 18. […] It should be remembered that the “LN-511” label refers to a substrate containing a blend of laminin-521 and laminin-111 at a 1:3 weight ratio. FIG. 3 is a set of six bar graphs showing gene expression during differentiation on the three substrates (MG, LN-521, and LN-511) for six different genes whose name is above each graph. Relative gene expression was normalized to the housekeeping gene GAPDH. […] Endoderm associated gene FOXA2 peaked on all substrates on day 3 and then decreased thereafter. […] HNF4A was detected at day 3 on all substrates, but by day 9, significant differences in expression patterns emerged.

[2] = tested on: hESC-derived hepatocytes; assay: Biliary efflux of CDFDA; assay type: cell-based, human; conditions: 2 μM CDFDA for 30 minutes; versus the MG substrate
Description: To determine whether these cells were capable of biliary efflux, cells were treated with 5(6)-carboxy-2′,7′-dichlorofluorescein diacetate (CDFDA), which was metabolised to fluorescent CDF and effluxed by multidrug resistance associated protein 2 (MRP2). hESC-derived hepatocytes were incubated with 2 μM of 5(6)-carboxy-2′,7′dichlorofluorescein diacetate (CDFDA) for 30 minutes. Cultures were then washed with ice-cold PBS containing calcium and magnesium. Cells were either collected for imaging or retained for quantification of efflux. For fluorescent quantification, hepatic maturation was replaced and cells incubated at 37 degrees Celsius for 30 minutes. The efflux of CDFDA from cells into media was measured by fluorescence spectroscopy at […] using a FLUOStar Omega multi-mode microplate reader.
The results are shown in the bottom row (C) of photomicrographs.

[3] = tested on: primary human hepatocytes (PHHs); assay: Primary human hepatocyte metabolism and protein production on the substrates; assay type: cell-based; conditions: female PHHs, ELISA
Description: Cryoplateable human hepatocytes were plated and maintained according to the instructions of vendor Life Technologies. Briefly, cryoplateable hepatocytes were resuscitated in thawing medium (Life Technologies, catalog no. CM3000) and plated onto the pre-coated 96 well plates. Cells-attached to all matrices efficiently and were maintained in an incubator set at 37 degrees Celsius and CO2 levels set to 5%. At 24 hours post-plating, the medium was changed to an incubation medium (catalog no. CM4000).
To determine whether these large changes in metabolic capacity correlated to increased protein production, the production of albumin and alpha fetoprotein (AFP) from hESC-derived and cryoplatable hepatocytes was quantified using commercially available enzyme-linked immunosorbent assay (ELISA) kits. The different media were collected at denoted time points during hESC differentiation, days 20-26. […] Samples were run in triplicate and measured on a FLUOStar Omega multi-mode microplate reader. Protein production was expressed as ng or μg of protein per milliliter of media, per milligram of protein. The results are shown in FIG. 7, where the expression of these two proteins was measured on days 20, 22, 24, and 26 of differentiation. Despite the large changes in metabolic capacity, no significant differences in albumin or AFP secretion was detected by ELISA. […]

[4] = tested on: MAN12 cells; assay: Immunostaining of ALB and CYP3A in MAN12 derived cells (Example 4); assay type: cell-based, human; conditions: MAN12, Day 24 of differentiation, Cameron protocol
Description: MAN12 cells, a GMP grade cell line, were plated on three different substrates. The first substrate was Matrigel® (MG), and served as a control. The second substrate was coated with 5 micrograms per square centimeter (μg/cm^2) of laminin-521 (LN-521). […] The cells were then differentiated according to the Cameron protocol.
(§1) FIG. 14 is a set of 15 photomicrographs at 10× magnification, organized into three columns and five rows, taken on Day 24 of differentiation. […] Row A is a set of phase contrast images of morphology. The scale bars are 200 μm. Row B is a set of photomicrographs showing the immunofluorescent staining of albumin (ALB) on the three different matrices. Row C is a set of photomicrographs showing the immunofluorescent staining of cytochrome P450 3A (CYP3A). Row D is a set of photomicrographs showing the immunofluorescent staining of multidrug resistance protein 1 (MRP1). Row E is a set of photomicrographs showing immunoglobulin G control staining for sheep, mouse, and rabbit antisera.
FIG. 15 is a set of four bar graphs. The first row of two graphs show hepatocyte protein secretion for alpha fetoprotein and albumin as analyzed by ELISA on day 24 of differentiation (n=3). No significant differences were observed across the three matrices. The second row of two graphs show the metabolic function of CYP p450 activity on days 18, 20, and 24 for CYP1A2 and CYP3A activity.

[5] = tested on: MAN11 cells; assay: Immunostaining of ALB and CYP3A in MAN11 derived cells (Example 5); assay type: cell-based, human; conditions: MAN11, Day 18, Cameron protocol
Description: MAN11 cells, another GMP grade cell line, were plated on three different substrates. The first substrate was Matrigel® (MG), and served as a control. The second substrate was coated with 5 micrograms per square centimeter (μg/cm^2) of laminin-521 (LN-521). […] The cells were then differentiated according to the Cameron protocol.
as §1, with “16” for “14”, “rows.” for “rows, taken on Day 24 of differentiation.”, “antisera. All of these photos were taken on Day 18.” for “antisera.”

With “LN-521: substrate coated with 5 μg/cm^2 of laminin-521, the protein formed by joining α5, β2 and γ1 chains” the “AFP gene expression over time” value [1] was “peaking on day 9 then decreasing at day 18”, the “HNF4A gene expression over time” value [1] was “highest on day 9, decreasing by day 18” and the biliary efflux [2] was “more active biliary efflux”. For the same substance, the albumin production [3] was “enhanced”, the “ALB, percentage of positive cells and standard deviation” value [4] was 83.3% ± 8.5 and the “CYP3A, percentage of positive cells and standard deviation” value [4] was 81.5% ± 8.6. The “ALB, percentage of positive cells and standard deviation” value [5] was 89.2% ± 6.0 and the “CYP3A, percentage of positive cells and standard deviation” value [5] was 90.8% ± 9.9.
